≈ marks a conversion by molar mass, not a printed value.

This is an account of results in the OPERA property sets (Mansouri et al. 2018).

Conditions in the first data set: not given
Take `Nc1ccc(-c2ccc(Cl)cc2)cc1`: the solubility (in general, how much of the substance goes into solution per volume) came to 0.023 mM (≈ 0.00468 mg/mL).

`NCCNCCNCCNCCN`: the solubility came to 34500 mM (≈ 6540 mg/mL).

With `CC1CCC(C)O1` (configuration not stated), the solubility stood at 1180 mM (≈ 118 mg/mL). This solubility lies about 29-fold lower than the previous one.

The compound `CN(C)C(=O)OC1=CC(=O)CC(C)(C)C1` showed a solubility of 142 mM (≈ 30 mg/mL).

With `CC(C)OC(=O)COc1ccc(Cl)cc1Cl`, the solubility is 0.142 mM (≈ 0.0373 mg/mL).

In the case of `Cc1cc(C)c(C(=O)O)c(C)c1`, the solubility worked out at 4.4 mM (≈ 0.722 mg/mL).

Compound `Cc1cccc(Br)c1` yielded a solubility of 0.3 mM (≈ 0.0513 mg/mL).

Still in this data set, the particulars now being: 20 °C.
`CCCC1(CCC)C(=O)NC(=O)NC1=O` showed a solubility of 2.83 mM (≈ 0.6 mg/mL).

For `O=c1ccc2ccccc2o1`, the solubility came out at 13 mM (≈ 1.9 mg/mL).

For the compound `C[C@@H]1CN[C@@H](C)CN1`, the solubility stood at 3060 mM (≈ 350 mg/mL). This solubility lies about 240-fold higher than the previous one.

In the case of `CCc1ccccc1CC`, the solubility was determined as 0.53 mM (≈ 0.0711 mg/mL).

As to `CN(C)C(=O)NC1CCCCCCC1`, the solubility was found to be 6.05 mM (≈ 1.2 mg/mL).

The compound `CCc1ccc(CC)cc1` gave a solubility of 0.185 mM (≈ 0.0248 mg/mL).

Regarding `CC(Cl)[N+](=O)[O-]` (configuration not stated), the solubility came to 36.5 mM (≈ 4 mg/mL).

Compound `CC(CCl)OC(C)CCl` (configuration not stated) had a solubility of 9.94 mM (≈ 1.7 mg/mL).

Consider `CCC(Cl)[N+](=O)[O-]` (configuration not stated), for which the solubility amounted to 64.8 mM (≈ 8 mg/mL). Compared with the last compound, the solubility is about 6.5-fold higher.

In turn, `CCC1CCCCC1` came in with a solubility of 0.0561 mM (≈ 0.0063 mg/mL).

Take `c1cnc2ncncc2n1`: the solubility was determined as 1080 mM (≈ 143 mg/mL).

For `CCCCNC(=O)n1c(NC(=O)OC)nc2ccccc21`, the solubility was 0.0131 mM (≈ 0.0038 mg/mL).

Consider `Oc1ccc(/N=N/c2ccccc2)cc1`, for which the solubility amounted to 0.454 mM (≈ 0.09 mg/mL).

`CC1CNCCN1` (configuration not stated): the solubility turned out to be 4340 mM (≈ 435 mg/mL).

Take `CC(C)OC(=O)C(C)N(C(=O)c1ccccc1)c1ccc(F)c(Cl)c1` (configuration not stated): the solubility is 0.0373 mM (≈ 0.0136 mg/mL).

In turn, `CCCCOCCOC(C)=O` returned a solubility of 56.2 mM (≈ 9 mg/mL).

`Cc1cccc(N)c1` gave a solubility of 140 mM (≈ 15 mg/mL).

The same data set, now with this note: 22 °C.
As for `CC(Oc1ccccc1Cl)C(=O)O` (configuration not stated), the solubility was 5.98 mM (≈ 1.2 mg/mL).

In turn, `CCOC(=O)C(=O)C(=O)OCC` came in with a solubility of 3250 mM (≈ 566 mg/mL).

Take `O=C1NC(=O)C(c2ccccc2)(c2ccccc2)N1`: the solubility was 0.127 mM (≈ 0.032 mg/mL).

With `CN(C)C(=O)N(C(=O)c1ccccc1)c1ccc(Cl)c(Cl)c1`, the solubility worked out at 0.0474 mM (≈ 0.016 mg/mL).

The same data set, now with this note: 24 °C.
The compound `CN(C)CCCN1c2ccccc2Sc2ccccc21` gave a solubility of 0.0499 mM (≈ 0.0142 mg/mL). This counts as double-digit micromolar.

For the compound `CN(C)CCCN1c2ccccc2CCc2ccccc21`, the solubility is 0.065 mM (≈ 0.0182 mg/mL).

Compound `CC(C)CC(=O)CC(C)C` yielded a solubility of 18.6 mM (≈ 2.64 mg/mL).

The same data set, now with this note: 25 °C.
`C=C(c1ccccc1)c1ccccc1` returned a solubility of 0.0366 mM (≈ 0.0066 mg/mL).

In the case of `Cc1c[nH]c(=S)[nH]c1=O`, the solubility was 3.58 mM (≈ 0.509 mg/mL). Compared with the last compound, the solubility is about 98-fold higher.

Turning to `O=C(O)c1cccc(O)c1`, the solubility came to 52.5 mM (≈ 7.25 mg/mL).

Consider `Cc1ccccc1C(=O)O`, for which the solubility was 8.67 mM (≈ 1.18 mg/mL).

In turn, `CCCOP(=O)(OCCC)Oc1ccc(SC)cc1` showed a solubility of 0.411 mM (≈ 0.125 mg/mL).

Compound `O=C(O)c1cccc([N+](=O)[O-])c1C(=O)O` showed a solubility of 95.2 mM (≈ 20.1 mg/mL).

In the case of `O=c1cc[nH]c(=S)[nH]1`, the solubility came out at 5.53 mM (≈ 0.709 mg/mL).

Compound `Nc1ccc(S(=O)(=O)Nc2ncccn2)cc1` gave a solubility of 0.308 mM (≈ 0.077 mg/mL).

`c1ccc2[nH]ccc2c1`: the solubility was 30.4 mM (≈ 3.56 mg/mL).

In the case of `CCOC(=O)CC#N`, the solubility turned out to be 177 mM (≈ 20 mg/mL).

`ClC(Cl)=C(c1ccc(Cl)cc1)c1ccccc1Cl` returned a solubility of 0.00044 mM (≈ 0.00014 mg/mL).

Regarding `O=C(O)c1ccccc1F`, the solubility turned out to be 51.4 mM (≈ 7.2 mg/mL). This counts as millimolar.

In turn, `CCOP(=O)(OCC)OCC` came in with a solubility of 2740 mM (≈ 500 mg/mL). Compared with the last compound, the solubility is about 53-fold higher.

In the case of `O=C(O)c1cccc(F)c1`, the solubility was found to be 10.7 mM (≈ 1.5 mg/mL).

As for `O=[N+]([O-])c1ccccc1O`, the solubility amounted to 18 mM (≈ 2.5 mg/mL).

As to `Clc1ccc(-c2ccccc2)c(Cl)c1`, the solubility is 0.00515 mM (≈ 0.00115 mg/mL).

In the case of `O=C(O)CNC(=O)c1ccccc1`, the solubility came to 20.9 mM (≈ 3.75 mg/mL). This solubility lies about 4100-fold higher than the previous one.

`c1ccc2c(c1)CCN2` showed a solubility of 90.6 mM (≈ 10.8 mg/mL).

Regarding `O=C1NC(=O)C([N+](=O)[O-])C(=O)N1`, the solubility was determined as 5.2 mM (≈ 0.9 mg/mL). This solubility is about 17-fold lower than that of the compound before.

For `Cc1ccnc(C)c1`, the solubility was found to be 3020 mM (≈ 324 mg/mL). This solubility lies about 580-fold higher than the previous one.

For `Clc1ccc(Br)cc1`, the solubility was 0.235 mM (≈ 0.0449 mg/mL).

In turn, `CCCCCCCBr` had a solubility of 0.0371 mM (≈ 0.00664 mg/mL).

As for `O=C(O)COc1c(Cl)ccc(Cl)c1Cl`, the solubility was determined as 2.4 mM (≈ 0.613 mg/mL).

Compound `O=C(O)c1cc(=O)c(O)c(C(=O)O)o1` registered a solubility of 42 mM (≈ 8.4 mg/mL).

Compound `Fc1ccccc1Cl` yielded a solubility of 3.84 mM (≈ 0.501 mg/mL).

As to `N#CNC(=N)N`, the solubility was 491 mM (≈ 41.3 mg/mL). This solubility is about 130-fold higher than that of the compound before.

Take `Clc1ccc(Cl)c(-c2ccccc2)c1`: the solubility is 0.00502 mM (≈ 0.00112 mg/mL).

As for `C=CCC1(C(C)C)C(=O)NC(=O)NC1=O`, the solubility was 19.4 mM (≈ 4.08 mg/mL).

For the compound `Nc1cc[nH]c(=O)n1`, the solubility was 72 mM (≈ 8 mg/mL).

`Cc1ccccc1N1C(=O)c2cc(S(N)(=O)=O)c(Cl)cc2NC1C` (configuration not stated) came in with a solubility of 0.165 mM (≈ 0.0603 mg/mL).

`c1ccc2c(c1)Cc1c-2ccc2ccccc12`: the solubility is 0.00021 mM (≈ 4.54e-05 mg/mL).

Consider `Cc1ccc(C(=O)O)cc1`, for which the solubility came out at 2.5 mM (≈ 0.34 mg/mL). Compared with the last compound, the solubility is about 12000-fold higher.

Turning to `O=C(O)CCI`, the solubility worked out at 372 mM (≈ 74.3 mg/mL).

For `CCC1(C2=CCCCC2)C(=O)NC(=O)NC1=O`, the solubility amounted to 6.77 mM (≈ 1.6 mg/mL).

On to `CCCCCCCCCCCCCCCCCCCCCCCCCCCCCCCCCCCC`, for which the solubility was found to be 3.35e-06 mM (≈ 1.7e-06 mg/mL).

In the case of `Cc1cc2ccccc2cc1C`, the solubility amounted to 0.0127 mM (≈ 0.00199 mg/mL).

With `C#CCCCCCC`, the solubility came out at 0.218 mM (≈ 0.024 mg/mL). This solubility lies about 17-fold higher than the previous one.

With `CCC(C)(C)CC`, the solubility amounted to 0.0591 mM (≈ 0.00592 mg/mL).

Turning to `CCCC(C(=O)O)C(=O)O`, the solubility was found to be 4790 mM (≈ 700 mg/mL).

The compound `O=C(Nc1ccccc1)c1ccccc1O` displayed a solubility of 0.258 mM (≈ 0.055 mg/mL).

The same data set, now with this note: 27 °C.
In turn, `CCCCOC=O` came in with a solubility of 74 mM (≈ 7.56 mg/mL).

Staying with this data set, now noted: 30 °C.
With `CC(C)CCC[C@@H](C)[C@H]1CC[C@H]2[C@@H]3CC=C4C[C@@H](O)CC[C@]4(C)[C@H]3CC[C@]12C`, the solubility amounted to 0.000246 mM (≈ 9.5e-05 mg/mL).

Take `Cc1ccc(S(=O)(=O)NC(=O)NN2CCCCCC2)cc1`: the solubility stood at 0.21 mM (≈ 0.0654 mg/mL). Compared with the last compound, the solubility is about 850-fold higher.

`CC1=CC(=O)c2ccccc2C1=O`: the solubility was determined as 0.929 mM (≈ 0.16 mg/mL). This solubility lies about 4.4-fold higher than the previous one.

`Cc1cccc(Nc2ccccc2C(=O)O)c1C` showed a solubility of 0.0829 mM (≈ 0.02 mg/mL). Compared with the last compound, the solubility is about 11-fold lower.

As to `C/C=C/C=C/C(=O)O`, the solubility was found to be 22.3 mM (≈ 2.5 mg/mL).
